From patent US6429173B1, “Defloration agent for apple trees” (Agro-Kanesho Co., Ltd., priority 1998, dated 2002) come the findings set out here.

The experiment has as its system apple tree (variety: Fuji). Briefly: Defloration effect (percentage of remaining fruits) after spraying a flowering apple branch. It is filed as in vivo. The settings on record: Low temperature condition (14.6° C.); ethephon alone 100 ppm, compound (I) 0 ppm; 30 days after spraying. From the text:
The ME preparation and ethephon preparation produced as described above were mixed together to obtain an application solution.
A branch having about 50 bunches of flowers was selected from a 13-year old apple tree (variety: Fuji). The application solution produced as described above was sprayed over the whole branch with a knapsack sprayer on the day after the full blossom of the central flower. The evaluation results are shown by percentages of remaining fruits (both central and lateral fruits) calculated by the formula shown below. The phytotoxicity was determined on the basis of defoliation, discolored leaves, state of leaves and also state of russet, and the results were classified into the following 5 ranks (− to +++).
Percentage of remaining fruits ≈ number of normal fruits on the test day/number of flowers on the treatment day × 100

SMILES strings stand for the structures.

On to `O=P(O)(O)CCCl` [Ethephon, 2-chloroethylphosphonic acid], for which the “Fruit setting rate (%) Central fruit” value came to 83% and the “Fruit setting rate (%) Lateral fruit” value stood at 42%.
